Experimental data reported in paper PMC2962730 (Journal of neurochemistry, 2010).
Where a chain is given by its changes, count along the chain named.

Key:
[1] = molecular target: T1, hVAChT Y60W (Homo sapiens, UniProt Q16572, Y60W); assay: [3H]vesamicol saturation binding; settings: pH 7.4
T1 sequence (Q16572 1-532 Y60W): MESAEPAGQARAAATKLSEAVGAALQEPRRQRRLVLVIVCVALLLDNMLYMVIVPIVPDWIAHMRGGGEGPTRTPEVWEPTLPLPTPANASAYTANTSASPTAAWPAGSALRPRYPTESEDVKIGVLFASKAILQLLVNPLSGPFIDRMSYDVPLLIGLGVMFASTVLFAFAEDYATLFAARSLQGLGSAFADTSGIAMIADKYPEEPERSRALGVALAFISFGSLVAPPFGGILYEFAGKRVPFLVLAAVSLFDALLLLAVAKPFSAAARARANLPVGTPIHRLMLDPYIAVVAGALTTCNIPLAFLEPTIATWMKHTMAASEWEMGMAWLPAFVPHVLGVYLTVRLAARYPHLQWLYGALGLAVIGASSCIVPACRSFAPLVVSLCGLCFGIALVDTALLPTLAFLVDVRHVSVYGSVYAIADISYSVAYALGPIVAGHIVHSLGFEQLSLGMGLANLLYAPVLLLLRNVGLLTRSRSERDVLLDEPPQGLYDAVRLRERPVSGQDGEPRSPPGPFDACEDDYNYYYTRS

[2] = molecular target: T2, hVAChT M320A (Homo sapiens, UniProt Q16572, M320A); assay: [3H]vesamicol saturation binding; settings: pH 7.4
T2 sequence (Q16572 1-532 M320A): T1 sequence (Q16572 1-532 Y60W) with W60Y, M320A

[3] = system: VAChT C391Y; settings: ref Zhu et al. (2001); cited from earlier work
[4] = molecular target: T1, hVAChT Y60W; assay: ACh equilibrium binding by competition against [3H]vesamicol
[5] = molecular target: T3, hVAChT M316A (Homo sapiens, UniProt Q16572, M316A); assay: [3H]ACh transport; type: biochemical
T3 sequence (Q16572 1-532 M316A): T1 sequence (Q16572 1-532 Y60W) with W60Y, M316A

[6] = molecular target: T4, hVAChT W325F (Homo sapiens, UniProt Q16572, W325F); assay: ACh equilibrium binding by competition against [3H]vesamicol
T4 sequence (Q16572 1-532 W325F): T1 sequence (Q16572 1-532 Y60W) with W60Y, W325F

[7] = molecular target: T5, hVAChT W331A (Homo sapiens, UniProt Q16572, W331A); assay: [3H]ACh transport; type: biochemical
T5 sequence (Q16572 1-532 W331A): T1 sequence (Q16572 1-532 Y60W) with W60Y, W331A

Row | Kd [4] [mM] | tighter binding of ACh than by wild-type ([4]; Y60W hVAChT vs wild-type) [fold] | FHA, fraction of the ACh sites that have high affinity ([4]; Y60W hVAChT, pH 7.4) | Vmax/Bmax, ACh transport normalized to Bmax ([5]; pH 7.4) [min⁻¹] | Km ([5]; read-out: KM, Michaelis-Menten constant for ACh transport, pH 7.4) [µM] | Kd [6] [mM] | FHA, fraction of the ACh sites that have high affinity ([6]; W325F hVAChT, pH 7.4) | [3H]ACh transport [7] | SMILES | Bmax, maximal specific [3H]vesamicol binding (VAChT expression level) [1] [pmol/mg] | Bmax, maximal specific [3H]vesamicol binding (VAChT expression level) [2] [pmol/mg] | vesamicol binding [3]
1 | – | – | – | – | – | – | – | – | O[C@@H]1CCCC[C@H]1N1CCC(c2ccccc2)CC1 (racemic) [vesamicol, ( )-trans-2-(4-phenylpiperidino)cyclohexanol] | 34 ± 3 | 62 ± 5 | does not bind vesamicol
2 | 4.5 ± 0.1 | 2 | 0.86 ± 0.02 | 8.2 ± 1.0 | 1500 ± 300 | 7.3 ± 1.6 | 0.74 ± 0.09 | no transport | CC(=O)OCC[N+](C)(C)C [ACh, acetylcholine] | – | – | –
